Assay results as given in PubChem BioAssay AID652266 (Broad Institute, 2013).
Activity calls are given as the source filed them. How the calls were made is not given here.

Each compound was assayed against Protein disulfide-isomerase A3 (Homo sapiens) (UniProt P30101) (assay: ERp57 (PDIA3) enzyme inhibition – biochemical, dry powder samples, plate reader, selectivity assay, dose response (AID 652266)). Details: purified ERp57 enzyme.
Protein disulfide-isomerase A3 (Homo sapiens), sequence (P30101 whole entry, looked up): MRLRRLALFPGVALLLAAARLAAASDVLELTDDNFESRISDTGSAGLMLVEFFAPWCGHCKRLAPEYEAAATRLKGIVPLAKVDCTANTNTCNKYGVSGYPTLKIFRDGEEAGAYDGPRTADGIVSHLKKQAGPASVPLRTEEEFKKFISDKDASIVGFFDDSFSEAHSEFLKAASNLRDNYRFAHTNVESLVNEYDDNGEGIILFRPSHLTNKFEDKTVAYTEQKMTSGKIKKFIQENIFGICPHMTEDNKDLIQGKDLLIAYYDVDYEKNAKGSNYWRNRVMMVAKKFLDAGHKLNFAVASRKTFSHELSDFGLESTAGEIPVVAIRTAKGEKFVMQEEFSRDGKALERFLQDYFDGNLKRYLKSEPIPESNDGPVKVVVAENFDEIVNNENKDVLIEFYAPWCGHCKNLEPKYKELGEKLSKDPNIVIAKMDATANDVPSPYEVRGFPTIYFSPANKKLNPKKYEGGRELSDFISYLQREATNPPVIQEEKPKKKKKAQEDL
With `C/C1=C\[C@@H](O)C(C)(C)CCCC2(C)OC2C[C@@H]1OC(=O)c1ccc(O)cc1` (some centres not stated) the AC50 was > 30 µM (inactive). In the case of `CCOC(=O)c1c(CN2CCN(CCO)CC2)n(-c2ccccc2)c2cc(Br)c(O)cc12`, the AC50 is reported as > 30 µM (inactive). In the case of `CC(C)OC(=O)C1(CCOc2ccccc2)CCN(Cc2ccc(O)c(Cl)c2)CC1`, the AC50 is reported as > 30 µM (inactive). With `CCOC(=O)C1(CCOc2ccccc2)CCN(Cc2ccc(OC)c(Cl)c2)CC1` the AC50 was > 30 µM (inactive). With `CCN(C)C(=O)C1(CCOc2ccccc2)CCN(Cc2ccc(O)c(Cl)c2)CC1` the AC50 was > 30 µM (inactive). `CCOC(=O)C1(CCOc2ccccc2)CCN(Cc2ccc(O)c(Cl)c2)CC1` was tested, and the AC50 was > 30 µM (inactive). With `C/C1=C\C[C@H](OC(=O)c2ccc(O)cc2)/C(C)=C/[C@@H](O)C(C)(C)CCC1` the AC50 was > 30 µM (inactive). For `O=C(NC1CCCC1)C1(CCOc2ccccc2)CCN(Cc2ccc(O)c(Cl)c2)CC1`, the AC50 was > 30 µM (inactive). With `CCOC(=O)C1(CCOc2ccccc2)CCN(C(=O)c2ccc(O)c(Cl)c2)CC1` the AC50 was > 30 µM (inactive). `CCOC(=O)C1(CCOc2ccccc2)CCN(Cc2ccc(O)cc2)CC1` was tested, and the AC50 was > 30 µM (inactive). With `O=C(Nc1ccccc1)C1(CCOc2ccccc2)CCN(Cc2ccc(O)c(Cl)c2)CC1` the AC50 was > 30 µM (inactive). `CC(C)(C)OC(=O)C1(CCOc2ccccc2)CCN(Cc2ccc(O)c(Cl)c2)CC1` was tested, and the AC50 was > 30 µM (inactive).
